Results taken from US20090269354A1, “QUINAZOLINE DERIVATIVES AND METHODS OF TREATMENT” (Concert Pharmaceuticals, Inc., priority 2008, published 2009).

Experiments:
[1] = Compound stability in human liver microsomes (Example 16, design as Example 15); type: in vitro ADME; details: 1 μM test compound; for half-life at 1 μM: pooled human liver microsomes, pH 7.4, human liver microsomes 0.5 mg/mL; for % Difference with respect to non-deuterated analog: t1/2 vs 105-H or 106-H; for % Difference with respect to non-deuterated analog / % Difference with respect to non-deuterated Erlotinib: 0.5 mg/mL HLM; for % Difference with respect to non-deuterated Erlotinib: t1/2 vs erlotinib
Description: The metabolic stability of compounds of the invention was tested using pooled liver microsomal incubations. Samples of the test compounds, exposed to pooled human liver microsomes, were analyzed using HPLC-MS (or MS/MS) detection. For determining metabolic stability, multiple reaction monitoring (MRM) was used to measure the disappearance of the test compounds.
Experimental Procedures. Human liver microsomes (“HLM”; 20 mg/mL) were obtained from Xenotech, LLC (Lenexa, Kans.). β-nicotinamide adenine dinucleotide phosphate, reduced form (NADPH), magnesium chloride (MgCl2), and dimethyl sulfoxide (DMSO) were purchased from Sigma-Aldrich.
Stock solutions of test compounds (7.5 mM) were prepared in DMSO. The 7.5 mM stock solutions were diluted to 50 μM in acetonitrile (ACN). The 20 mg/mL human liver microsomes were diluted to 0.625 mg/mL in 0.1 M potassium phosphate buffer, pH 7.4, containing 3 mM MgCl2. The diluted microsomes (375 μL) were added to wells of a 96-well deep-well polypropylene plate in triplicate. A 10 μL aliquot of the 50 μM test compound solution was added to the microsomes and the mixture was pre-warmed for 10 minutes. Reactions were initiated by addition of 125 μL of pre-warmed NADPH solution (8 mM NADPH in 0.1M potassium phosphate buffer, pH 7.4, containing 3 mM MgCl2). The final reaction volume was 0.5 mL and contained 0.5 mg/mL human liver microsomes, 1 μM test compound, and 2 mM NADPH in 0.1 M potassium phosphate buffer, pH 7.4, and 3 mM MgCl2. The reaction mixtures were incubated at 37° C., and 50 μL aliquots were removed at 0, 5, 10, 20, and 30 minutes and added to shallow-well 96-well plates which contained 50 μL of ice-cold ACN with internal standard to stop the reactions. The plates were stored at 4° C. for 20 minutes after which 100 μL of water was added to the wells of the plate before centrifugation to pellet precipitated proteins. Supernatants were transferred to another 96-well plate and analyzed for amounts of parent remaining by LC-MS/MS using an Applied Bio-systems API 4000 mass spectrometer. 7-ethoxycoumarin was used as a positive control.
The in vitro t1/2 s for test compounds were calculated from the slopes of the linear regression of % parent remaining (ln) vs incubation time relationship.
in vitro t1/2=0.693/k, where k=−[slope of linear regression of % parent remaining(ln) vs incubation time]. Data analysis was performed using Microsoft Excel Software.
Evaluation of Compound Stability in Human Liver Microsomes.

[2] = Compound stability in human liver microsomes (Example 15); type: in vitro ADME; details: 1 μM test compound; for half-life at 1 μM: pH 7.4, pooled human liver microsomes 0.5 mg/mL, 2 mM NADPH, 37° C., 0-30 min; for % Difference (t1/2 compared to erlotinib): [(deuterated species) − (nondeuterated species)](100)/(nondeuterated species), reference erlotinib, 0.5 mg/mL HLM
Description: Evaluation of Compound Stability in Human Liver Microsomes. […] The metabolic stability of compounds of the invention was tested using pooled liver microsomal incubations. Samples of the test compounds, exposed to pooled human liver microsomes, were analyzed using HPLC-MS (or MS/MS) detection. For determining metabolic stability, multiple reaction monitoring (MRM) was used to measure the disappearance of the test compounds. Experimental Procedures. Human liver microsomes (“HLM”; 20 mg/mL) were obtained from Xenotech, LLC (Lenexa, Kans.). β-nicotinamide adenine dinucleotide phosphate, reduced form (NADPH), magnesium chloride (MgCl2), and dimethyl sulfoxide (DMSO) were purchased from Sigma-Aldrich. Stock solutions of test compounds (7.5 mM) were prepared in DMSO. The 7.5 mM stock solutions were diluted to 50 μM in acetonitrile (ACN). The 20 mg/mL human liver microsomes were diluted to 0.625 mg/mL in 0.1 M potassium phosphate buffer, pH 7.4, containing 3 mM MgCl2. The diluted microsomes (375 μL) were added to wells of a 96-well deep-well polypropylene plate in triplicate. A 10 μL aliquot of the 50 μM test compound solution was added to the microsomes and the mixture was pre-warmed for 10 minutes. Reactions were initiated by addition of 125 μL of pre-warmed NADPH solution (8 mM NADPH in 0.1M potassium phosphate buffer, pH 7.4, containing 3 mM MgCl2). The final reaction volume was 0.5 mL and contained 0.5 mg/mL human liver microsomes, 1 μM test compound, and 2 mM NADPH in 0.1 M potassium phosphate buffer, pH 7.4, and 3 mM MgCl2. The reaction mixtures were incubated at 37° C., and 50 μL aliquots were removed at 0, 5, 10, 20, and 30 minutes and added to shallow-well 96-well plates which contained 50 μL of ice-cold ACN with internal standard to stop the reactions. The plates were stored at 4° C. for 20 minutes after which 100 μL of water was added to the wells of the plate before centrifugation to pellet precipitated proteins. Supernatants were transferred to another 96-well plate and analyzed for amounts of parent remaining by LC-MS/MS using an Applied Bio-systems API 4000 mass spectrometer. 7-ethoxycoumarin was used as a positive control. The in vitro t1/2 s for test compounds were calculated from the slopes of the linear regression of % parent remaining (ln) vs incubation time relationship. […] Data analysis was performed using Microsoft Excel Software.

| Structure (SMILES) | half-life at 1 μM [1] | % Difference with respect to non-deuterated analog [1] | % Difference with respect to non-deuterated Erlotinib [1] | half-life at 1 μM [2] | % Difference (t1/2 compared to erlotinib) [2] |
| --- | --- | --- | --- | --- | --- |
| [2H]C([2H])([2H])OC([2H])([2H])COc1cc2ncnc(Nc3cccc(Br)c3)c2cc1OCC([2H])([2H])OC([2H])([2H])[2H] [Compound 105, N-(3-Bromophenyl)-6,7-bis(2-(methoxy-d3)-2,2-d2-ethoxy)quinazolin-4-amine] | 1.18 h | 35% | 19% | – | – |
| [2H]C([2H])([2H])OC([2H])([2H])COc1cc2ncnc(Nc3cccc(Cl)c3)c2cc1OCC([2H])([2H])OC([2H])([2H])[2H] [Compound 106, N-(3-Chlorophenyl)-6,7-bis(2-(methoxy-d3)-2,2-d2-ethoxy)quinazolin-4-amine] | 1.54 h | 22% | 55% | – | – |
| [2H]C([2H])([2H])OC([2H])([2H])C([2H])([2H])Oc1cc2ncnc(Nc3cccc(C#C)c3)c2cc1OC([2H])([2H])C([2H])([2H])OC([2H])([2H])[2H] [Compound 120, N-(3-Ethynylphenyl)-6,7-bis(2-(methoxy-d3)ethoxy-d4)quinazolin-4-amine] | – | – | – | 1.14 h | – |
| [2H]C([2H])([2H])OC([2H])([2H])C([2H])([2H])Oc1cc2ncnc(Nc3ccc(F)c(C#C)c3)c2cc1OC([2H])([2H])C([2H])([2H])OC([2H])([2H])[2H] [Compound 121, N-(3-Ethynyl-4-fluorophenyl)-6,7-bis(2-(methoxy-d3)ethoxy-d4)quinazolin-4-amine] | – | – | – | 0.847 h | −12% |
| [2H]C([2H])([2H])OC([2H])([2H])COc1cc2ncnc(Nc3ccc(F)c(C#C)c3)c2cc1OCC([2H])([2H])OC([2H])([2H])[2H] [Compound 135, N-(3-Ethynyl-4-fluorophenyl)-6,7-bis(2-(methoxy-d3)-2,2-d2-ethoxy)quinazolin-4-amine] | – | – | – | 0.785 h | −19% |
| [2H]C([2H])([2H])OC([2H])([2H])COc1cc2ncnc(Nc3ccc(O)c(C#C)c3)c2cc1OCC([2H])([2H])OC([2H])([2H])[2H] [Compound 138, 4-(6,7-Bis(2-(methoxy-d3)-2,2-d2-ethoxy)quinazolin-4-ylamino)-2-ethynylphenol] | – | – | – | 1.48 h | – |
| C#Cc1cccc(Nc2ncnc3cc(OCCOC)c(OCCOC)cc23)c1 [Erlotinib, [6,7-Bis-(2-methoxy-ethoxy)-quinazolin-4-yl]-(3-ethynyl-phenyl)-amine, reference compound] | 0.997 h | – | – | 0.963 h | – |
